# Assay results taken from PMC6739813, “Structures of the Neisseria meningitides methionine‐binding protein MetQ in substrate‐free form and bound to L‐ and D‐methionine isomers” (Protein Science : A Publication of the Protein Society, 2019).
# Key:
# [1] = molecular target: T1, MetQ (methionine-binding protein) (Neisseria meningitidis, UniProt Q9JPG4, N238A); assay: ITC
# T1 construct: gene gna1946
# T1 sequence (Q9JPG4 43-287 N238A): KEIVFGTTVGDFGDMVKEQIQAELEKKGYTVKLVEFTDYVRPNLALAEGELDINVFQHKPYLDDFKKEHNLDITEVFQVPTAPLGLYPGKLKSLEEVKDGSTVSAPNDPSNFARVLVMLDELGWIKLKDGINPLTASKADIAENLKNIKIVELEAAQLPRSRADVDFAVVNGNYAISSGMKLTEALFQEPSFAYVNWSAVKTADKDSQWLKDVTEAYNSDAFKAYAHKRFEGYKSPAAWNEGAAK
# [2] = molecular target: T2, MetQ (methionine-binding protein) (Neisseria meningitidis, UniProt Q9JPG4); assay: ITC; crystal structure at […] Å
# T2 construct: gene gna1946
# [3] = molecular target: T2, MetQ (methionine-binding protein); assay: ITC (displacement titration with D-methionine); crystal structure at […] Å
SMILES,Kd [1],Kd [2],Kd [3]
CSCC[C@@H](N)C(=O)O [D-methionine],240 µM,3.5 µM,–
CSCC[C@H](N)C(=O)O [L-methionine],78 µM,–,0.2 nM
